These results are taken from ChEMBL document CHEMBL1129195, “New antithrombotic RGD-mimetics with high bioavailability” (1996).

The subject of experiment [1] is Cavia porcellus. Kind of experiment: Ex vivo inhibition of collagen-induced platelet aggregation in guinea pig after p.o. administration.
Experiment [2] deals with Monkey. The experiment is described as follows: Ex vivo inhibition of collagen-induced platelet aggregation in cynomolgus monkey after p.o. administration. Format: functional. Particulars: Cercopithecidae, in Macaca fascicularis, po.
The subject of experiment [3] is Cavia porcellus. The experiment is described as follows: Ex vivo inhibition of collagen-induced platelet aggregation in guinea pig after i.v. administration. It is filed as functional. Particulars: iv.
In experiment [4] the test system is Monkey. Kind of experiment: Ex vivo inhibition of collagen-induced platelet aggregation in cynomolgus monkey after i.v. administration. Format: functional. Particulars: Cercopithecidae, in Macaca fascicularis, iv.

The structures appear in SMILES notation. Some results are limits rather than exact numbers.

With `CCOC(=O)CN1CCN(C[C@@H]2CN(c3ccc(C(=N)NC(=O)c4cccc(C(F)(F)F)c4)cc3)C(=O)O2)CC1`, the ED50 in experiment [1] was under 1 mg/kg; in experiment [2] it was over 1 mg/kg.

Consider `CCOC(=O)CN1CCN(CC2CN(c3ccc(C(=N)NC(=O)c4ccco4)cc3)C(=O)O2)CC1` (configuration not stated), for which the 50% effective dose (ED50) in experiment [1] was under 1 mg/kg; in experiment [2] it was over 1 mg/kg.

In the case of `CCOC(=O)CC1CCN(CC2CN(c3ccc(C(=N)NC(=O)c4ccccc4)cc3)C(=O)O2)CC1` (configuration not stated), the ED50 in experiment [1] came out at 3 mg/kg.

In experiment [3], `CCOC(=O)CN1CCN(CC2CN(c3ccc(C(=N)NC(=O)c4cccnc4)cc3)C(=O)O2)CC1` (configuration not stated) gave an ED50 of 1 mg/kg.

With `CCOC(=O)CN1CCN(CC2CN(c3ccc(C(=N)NC(=O)OC)cc3)C(=O)O2)CC1` (configuration not stated), the ED50 in experiment [1] and in experiment [3] was 0.4 mg/kg each time.

Regarding `CCOC(=O)CN1CCN(CC2CN(c3ccc(C(=N)NC(=O)Oc4ccccc4)cc3)C(=O)O2)CC1` (configuration not stated), the ED50 in experiment [1] turned out to be 0.2 mg/kg.

Consider `CCOC(=O)CN1CCN(C[C@@H]2CN(c3ccc(C(=N)NC(=O)OCc4ccccc4)cc3)C(=O)O2)CC1`, for which the ED50 in experiment [1] was under 1 mg/kg; in experiment [2], over 1 mg/kg.

With `CC(C)(C)OC(=O)CN1CCN(C[C@@H]2CN(c3ccc(C(=N)NC(=O)c4ccccc4)cc3)C(=O)O2)CC1`, the results for the ED50 in experiment [1], in experiment [3] and in experiment [2] were 1 mg/kg, 0.4 mg/kg and over 1 mg/kg, respectively.

For `CCOC(=O)CN1CCN(C[C@@H]2CN(c3ccc(C(=N)NC(=O)OCC)cc3)C(=O)O2)CC1`, the ED50 is 0.17 mg/kg in experiment [1] and 0.7 mg/kg in experiment [2].

For `CCOC(=O)CN1CCN(C[C@@H]2CN(c3ccc(C(=N)NC(=O)c4ccc(OC)cc4)cc3)C(=O)O2)CC1`, the results for the 50% effective dose (ED50) in experiment [1] and in experiment [2] were under 1 mg/kg and over 1 mg/kg, respectively.

Take `CC(=O)O/N=C(/N)c1ccc(N2C[C@@H](CN3CCN(CC(=O)O)CC3)OC2=O)cc1`: the median effective dose (ED50) in experiment [1] was over 10 mg/kg.

Molecule `CCOC(=O)CC1(O)CCN(CC2CN(c3ccc(C(=N)NC(=O)c4ccccc4)cc3)C(=O)O2)CC1` (configuration not stated) had an ED50 in experiment [1] of 3 mg/kg.

In experiment [3], `CC(C)(C)OC(=O)CN1CCN(C[C@@H]2CN(c3ccc(C(=N)N)cc3)C(=O)O2)CC1` registered an ED50 of 1 mg/kg.

Consider `CCOC(=O)CN1CCN(C[C@@H]2CN(c3ccc(C(=N)NC(=O)c4ccccc4)cc3)C(=O)O2)CC1`, for which the ED50 was 0.32 mg/kg in experiment [1], 0.09 mg/kg in experiment [3], 0.13 mg/kg in experiment [4] and 1.3 mg/kg in experiment [2].

Molecule `CCOC(=O)CCN1CCN(C[C@@H]2CN(c3ccc(C(=N)NC(=O)c4ccccc4)cc3)C(=O)O2)CC1` showed an ED50 in experiment [1] of over 1 mg/kg.

`CCOC(=O)CCN1CCN(CC2CN(c3ccc(C(=N)NC(=O)OC)cc3)C(=O)O2)CC1` (configuration not stated): in experiment [1], the median effective dose (ED50) is over 10 mg/kg.

`CCOC(=O)CCN1CCN(C[C@H]2CN(c3ccc(C(=N)NC(=O)c4ccccc4)cc3)C(=O)O2)CC1` had an ED50 in experiment [1] of over 10 mg/kg.

Regarding `CC(C)(C)OC(=O)CCN1CCN(CC2CN(c3ccc(C(=N)NC(=O)c4ccccc4)cc3)C(=O)O2)CC1` (configuration not stated), in experiment [1], the ED50 was over 10 mg/kg.

With `N/C(=N/C(=O)c1ccccc1)c1ccc(N2C[C@@H](CN3CCN(CC(=O)O)CC3)OC2=O)cc1`, the ED50 in experiment [1] was over 10 mg/kg.

Take `CCOC(=O)CN1CCN(C[C@@H]2CN(c3ccc(C(=N)N)cc3)C(=O)O2)CC1`: the values for the ED50 in experiment [1] and in experiment [3] were over 1 mg/kg and 0.08 mg/kg, respectively.

`COC(=O)CN1CCN(C[C@@H]2CN(c3ccc(C(=N)NC(=O)OC)cc3)C(=O)O2)CC1`: the ED50 in experiment [1] was found to be 0.1 mg/kg; in experiment [2] it was 0.8 mg/kg.

For the molecule `CCOC(=O)CN1CCN(C[C@@H]2CN(c3ccc(C(=N)NC(=O)OC)cc3)C(=O)O2)CC1` [GANTOFIBAN], the ED50 was found to be 0.2 mg/kg in experiment [1], 0.5 mg/kg in experiment [4] and 0.07 mg/kg in experiment [2].

In the case of `CCOC(=O)CN1CCN(C[C@H]2CN(c3ccc(C(=N)NC(=O)c4ccccc4)cc3)C(=O)O2)CC1`, the ED50 in experiment [1] is over 1 mg/kg.

For the molecule `COC(=O)/N=C(/N)c1ccc(N2CC(CN3CCN(CC(=O)OC(C)(C)C)CC3)OC2=O)cc1` (configuration not stated), in experiment [1], the ED50 is over 1 mg/kg.

In experiment [1], `CCOC(=O)C1CCN(CC2CN(c3ccc(C(=N)NC(=O)c4ccccc4)cc3)C(=O)O2)CC1` (configuration not stated) yielded an ED50 of 10 mg/kg.

As to `CCOC(=O)CN1CCN(C[C@@H]2CN(c3ccc(C(=N)NC(=O)C(C)C)cc3)C(=O)O2)CC1`, the ED50 amounted to 0.4 mg/kg in experiment [1] and 1.3 mg/kg in experiment [2].
